Results published in patent US20230263729A1, “POLY(ETHYLENE GLYCOL)-BLOCK-POLY(PROPYLENE SULFIDE) NANOCARRIER PLATFORM FOR ENHANCED EFFICACY OF IMMUNOSUPPRESSIVE AGENTS” (Northwestern University, priority 2019, published 2023).

Key:
[1] = system: hair follicles at injection site; experiment: Alopecia assessment (dorsal photos, H&E histology); format: in vivo, C57BL/6J mice
Description: Alopecia Assessment—Dorsal photos were taken weekly to assess for alopecia. At 100-days post-transplantation, the mice were euthanized and skin samples were excised in the dorsal region at the subcutaneous injection site. Skin samples were placed in cassettes, fixed in 4% paraformaldehyde, and embedded in paraffin. Tissue blocks were sectioned at a thickness of […] and stained with hematoxylin and eosin (H&E). Digital images were taken on a Nikon microscope.

allogeneic islet graft = experiment: Intraportal fully-MHC mismatched allogeneic islet transplantation; format: in vivo, C57BL/6J mice; settings: standard dosage: 11 daily injections, 1 mg rapamycin per kg
Method: Allogeneic Islet Transplantation—Diabetes was induced via streptozotocin (IP; 190 mg/kg) injection five days prior to transplantation and confirmed via hyperglycemia (blood glucose>400 mg/dl). Starting the day prior to transplantation, mice were injected with PBS, PS, rapamycin, or rPS (N=3 per group) at 1 mg/kg (or equivalent) in accordance with a standard dosage (11 doses, given daily) or a low dosage (6 doses, given every 3rd day). On the day of transplantation, islets were isolated from Balb/c mice via common bile duct cannulation and pancreas distension with collagenase. Islets isolated from two donors (˜200 mouse islets, ˜175 IEQ) were transplanted to C57B6/J recipients via the portal vein. Body weight and blood glucose concentration were monitored closely for 100 days post-transplantation. Intraperitoneal glucose tolerance test (IPGTT) was performed one-month post transplantation. The animals were fasted for 16 hours before being injected intraperitoneally with 2 g dextrose (200 g/L; Gibco) per kg body weight. Blood glucose concentrations were measured at 0, 15, 30, 60- and 120-minutes post-injection.

[2] = in vivo; cited from earlier work
red blood cells = settings: in vivo; cited from earlier work
[3] = system: genes associated with rapamycin side effects; experiment: Single cell RNA sequencing of spleen macrophages and CD4+ regulatory T cells; format: in vivo, C57BL/6J mice; settings: 1 mg/kg s.c. 11 days
Method: Single Cell RNA Sequencing—Healthy C57BL/6J mice were subjected to a “standard dosage regime.” Animals were injected subcutaneously for 11 days with rapamycin (in 0.2% CMC) or rPS at a dose of 1 mg/kg. Equivalent dose of 1×PBS or PS were injected as controls. After 11 days, the mice were sacrificed, and the liver and spleen were excised. The organs were processed as was done for flow cytometry. CD4+ regulatory T cells and macrophages were isolated using magnetic sorting (MojoSort; BioLegend). Briefly, cells were first incubated in a cocktail of PE anti-mouse CD169 and PE anti-mouse F4/80 antibodies (BioLegend). After washing, incubation in anti-PE nanobeads (BioLegend) occurred. Macrophages were magnetically sorted from non-macrophages. The non-macrophages cell fraction was then incubated in mouse CD4+ T cell isolation biotin-antibody cocktail (BioLegend) and sorted. The CD4+ T cell fraction was then incubated in APC anti-mouse CD25 antibody (BioLegend), followed by washing, incubation in anti-APC nanobeads (BioLegend) and sorting. RNA was isolated from separated macrophages and CD4+ regulatory T cells using R-Neasy Mini Kit with DNAse digestion (Qiagen), Samples were frozen and shipped to Admera Health where they underwent library preparation using the Lexogen 3′ mRNA-Seq Library Prep Kit FWD HT (Lexogen) and were sequenced on an Illumina sequencer (HiSeq 2500 2×150 bp). For each pair, Read 2 was discarded and only Read 1 was used for downstream data analysis. Sequencing quality was analyzed with FastQC v0.11.5^47 and reads were trimmed and filtered with Trimmomatic v0.3948. One sample from the spleen T cell PBS treatment group and one sample from the spleen T cell rapamycin treatment group were discarded due to low sequencing quality. Reads were aligned with STAR v2.6.0a 49 to the GRCm38.p6 mouse reference genome primary assembly using the GRCm38.p6 mouse reference primary comprehensive gene annotation (https://www.gencodegenes.org/mouse/). Quantification and differential expression was performed with Cuffdiff from Cufflinks v2.2.150-52 again using the GRCm38.p6 mouse reference primary comprehensive gene annotation and a 0.05 FDR. Detailed settings for each software are included in Table S1.

In the case of `CO[C@H]1C[C@@H]2CC[C@@H](C)[C@@](O)(O2)C(=O)C(=O)N2CCCC[C@H]2C(=O)O[C@H]([C@H](C)C[C@@H]2CC[C@@H](O)[C@H](OC)C2)CC(=O)[C@H](C)/C=C(\C)[C@@H](O)[C@@H](OC)C(=O)[C@H](C)C[C@H](C)/C=C/C=C/C=C/1C` [rapamycin], the “hair follicles, histological analysis” value ([1]; low dosage) is reported as “some mature follicles present”, the injection site alopecia ([1]; low dosage) is reported as “alopecia was reduced” and the injection site alopecia ([1]; mice treated with free rapamycin) is reported as “experienced injection site alopecia”. For the same molecule, the “hair follicles, histological analysis” value ([1]; standard dosage) was “Only immature follicles”, the “mice remaining normoglycemic 100 days post transplantation” value (allogeneic islet graft) was 71% and the “patients impacted by alopecia” value [2] was “approximately 10%”. For the same molecule, the “partition into red blood cells” value (red blood cells) was 95%, the “ACAA1 Fold Change” value ([3]; Spleen CD4+ Regulatory T Cells) was −3.833 and the “CD79A Fold Change” value ([3]; Spleen CD4+ Regulatory T Cells) was −24. The “CRKL Fold Change” value ([3]; Spleen CD4+ Regulatory T Cells) was 7.387, the “MZB1 Fold Change” value ([3]; Spleen CD4+ Regulatory T Cells) was −24 and the “PIK3R1 Fold Change” value ([3]; Spleen CD4+ Regulatory T Cells) was −12. The “IGF1 Fold Change” value ([3]; Spleen Macrophages) was −9.108, the “MGAT1 Fold Change” value ([3]; Spleen Macrophages) was 5.0747 and the “ZDHHC3 Fold Change” value ([3]; Spleen Macrophages) was −8.143.
